Experimental data reported in ChEMBL document CHEMBL4033722, “Carboxylated aurone derivatives as potent inhibitors of xanthine oxidase” (Bioorg Med Chem, 2017).

Key:
[1] = target: T1, Xanthine dehydrogenase/oxidase (Bos taurus, UniProt P80457); assay: Inhibition of bovine milk xanthine-oxidase using xanthine as substrate after 5 mins by spectrophotometric method
[2] = target: T1, Xanthine dehydrogenase/oxidase; assay: Mixed-type inhibition of bovine milk xanthine oxidase assessed as enzyme-inhibitor complex using varying levels of xanthine as substrate by Line-weaver burk plot analysis
[3] = target: T1, Xanthine dehydrogenase/oxidase; assay: Mixed-type inhibition of bovine milk xanthine oxidase assessed as enzyme-substrate-inhibitor complex using varying levels of xanthine as substrate by Line-weaver burk plot analysis
[4] = target: T1, Xanthine dehydrogenase/oxidase; assay: Inhibition of bovine milk xanthine-oxidase up to 10 uM using xanthine as substrate after 5 mins by spectrophotometric method; details: cattle

T1 sequence (P80457 whole entry): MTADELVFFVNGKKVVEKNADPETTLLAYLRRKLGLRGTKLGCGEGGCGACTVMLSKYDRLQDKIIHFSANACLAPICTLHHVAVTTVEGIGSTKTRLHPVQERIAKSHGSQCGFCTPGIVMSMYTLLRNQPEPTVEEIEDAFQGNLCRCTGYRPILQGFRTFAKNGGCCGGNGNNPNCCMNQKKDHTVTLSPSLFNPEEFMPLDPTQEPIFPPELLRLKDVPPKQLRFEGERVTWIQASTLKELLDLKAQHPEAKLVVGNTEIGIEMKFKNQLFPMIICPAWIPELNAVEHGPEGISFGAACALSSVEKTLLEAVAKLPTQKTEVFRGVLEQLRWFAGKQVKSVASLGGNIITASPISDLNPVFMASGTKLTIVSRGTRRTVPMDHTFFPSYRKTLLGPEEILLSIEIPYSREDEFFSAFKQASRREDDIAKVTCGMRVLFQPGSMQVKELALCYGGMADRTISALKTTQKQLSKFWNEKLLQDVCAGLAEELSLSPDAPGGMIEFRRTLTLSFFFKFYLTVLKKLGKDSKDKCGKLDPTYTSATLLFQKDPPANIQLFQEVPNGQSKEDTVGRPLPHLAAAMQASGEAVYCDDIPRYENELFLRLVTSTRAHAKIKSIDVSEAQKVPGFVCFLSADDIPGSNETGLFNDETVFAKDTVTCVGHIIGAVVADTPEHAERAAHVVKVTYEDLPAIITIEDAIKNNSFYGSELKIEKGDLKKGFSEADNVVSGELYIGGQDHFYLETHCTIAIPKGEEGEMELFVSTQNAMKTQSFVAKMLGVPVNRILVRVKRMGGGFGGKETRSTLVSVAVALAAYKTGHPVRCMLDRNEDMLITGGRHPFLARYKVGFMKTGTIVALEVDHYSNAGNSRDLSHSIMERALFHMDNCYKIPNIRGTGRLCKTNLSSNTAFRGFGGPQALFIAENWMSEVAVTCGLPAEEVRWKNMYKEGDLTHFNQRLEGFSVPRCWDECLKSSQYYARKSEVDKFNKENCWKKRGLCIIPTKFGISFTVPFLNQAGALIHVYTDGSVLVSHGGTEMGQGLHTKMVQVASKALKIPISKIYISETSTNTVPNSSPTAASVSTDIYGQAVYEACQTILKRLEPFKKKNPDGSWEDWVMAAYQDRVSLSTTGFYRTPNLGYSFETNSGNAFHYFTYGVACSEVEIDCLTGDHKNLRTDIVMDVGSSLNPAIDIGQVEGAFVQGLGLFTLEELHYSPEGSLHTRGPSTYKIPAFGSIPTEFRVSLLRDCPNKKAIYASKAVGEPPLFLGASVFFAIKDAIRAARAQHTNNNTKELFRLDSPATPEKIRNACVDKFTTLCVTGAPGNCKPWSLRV

**Q.** Which IC50 [1] does the source give for `O=C(O)COc1ccc2c(c1)O/C(=C\c1ccccc1C(=O)O)C2=O` here?
**A.** 3840 nM

**Q.** For `O=C(O)c1ccc(/C=C2\Oc3cc(OCc4ccccc4)ccc3C2=O)cc1`, which IC50 [1] is on record?
**A.** 61 nM

**Q.** What does the source list for `C=C(C)COc1ccc2c(c1)O/C(=C\c1ccc(C(=O)O)cc1)C2=O`?
**A.** IC50 [1]: 46 nM; inhibition (INH) ([1]; cattle, 5 min): Dose-dependent effect; Ki [2]: 128 nM; Ki [3]: 1200 nM

**Q.** For `COC(=O)COc1ccc2c(c1)O/C(=C\c1ccccc1)C2=O`, which “inhibition (INH)” value [4] is on record?
**A.** Not Active

**Q.** `CC(Oc1ccc2c(c1)O/C(=C\c1ccccc1Cl)C2=O)C(=O)O` (stereo unspecified) was tested. Which “inhibition (INH)” value [4] did it give?
**A.** Not Active

**Q.** With `O=C(O)COc1ccc2c(c1)O/C(=C\c1ccccc1Cl)C2=O` as the compound, how does the IC50 [1] read?
**A.** 1230 nM

**Q.** How did the IC50 [1] turn out when `COc1ccc(/C=C2\Oc3cc(OCC(=O)O)ccc3C2=O)cc1` was run?
**A.** 1570 nM

**Q.** Which IC50 [1] does the source give for `COc1ccccc1/C=C1\Oc2cc(OCC(=O)O)ccc2C1=O` here?
**A.** 1300 nM

**Q.** With `O=C(O)c1ccc(/C=C2\Oc3cc(O)ccc3C2=O)cc1` as the compound, how does the IC50 [1] read?
**A.** 68 nM

**Q.** With `O=C(O)COc1ccc2c(c1)O/C(=C\c1ccccc1)C2=O` as the compound, how does the IC50 [1] read?
**A.** 4470 nM

**Q.** With `COc1ccc2c(c1)O/C(=C\c1ccc(C(=O)O)cc1)C2=O` as the compound, how does the IC50 [1] read?
**A.** 80 nM

**Q.** With `O=C(O)COc1ccc2c(c1)O/C(=C\c1ccc(C(=O)O)cc1)C2=O` as the compound, how does the IC50 [1] read?
**A.** 150 nM

**Q.** With `O=C1/C(=C/c2ccc(O)c(O)c2)Oc2cc(O)ccc21` [SULFURETIN] as the compound, how does the IC50 [1] read?
**A.** 3100 nM

**Q.** How did the IC50 [1] turn out when `Cc1ccc(C)c(COc2ccc3c(c2)O/C(=C\c2ccc(C(=O)O)cc2)C3=O)c1` was run?
**A.** 62 nM

**Q.** For `O=C(O)c1ccc(/C=C2\Oc3cc(OCc4cccc5ccccc45)ccc3C2=O)cc1`, which IC50 [1] is on record?
**A.** 69 nM

**Q.** With `COc1ccc(/C=C2\Oc3cc(OCC(=O)O)ccc3C2=O)c(OC)c1` as the compound, how does the IC50 [1] read?
**A.** 1270 nM

**Q.** What about the Ki [2] of the same compound?
**A.** 2.9 nM

**Q.** What about the Ki [3] of the same compound?
**A.** 34.3 nM
